Measured values published in ChEMBL document CHEMBL3880401, “Novel aminopyridine derivatives as mGluR5 antagonists” (2006).

The molecules below were run against Metabotropic glutamate receptor 5 (Rattus norvegicus, UniProt P31424) (assay: Displacement of [3H]-MPEP from mGlur5 from Sprague-Dawley rat brain membranes incubated for 1 hr by liquid scintillation spectrometry).
Assay type: tissue-based, Membrane

Metabotropic glutamate receptor 5, sequence (P31424 whole entry): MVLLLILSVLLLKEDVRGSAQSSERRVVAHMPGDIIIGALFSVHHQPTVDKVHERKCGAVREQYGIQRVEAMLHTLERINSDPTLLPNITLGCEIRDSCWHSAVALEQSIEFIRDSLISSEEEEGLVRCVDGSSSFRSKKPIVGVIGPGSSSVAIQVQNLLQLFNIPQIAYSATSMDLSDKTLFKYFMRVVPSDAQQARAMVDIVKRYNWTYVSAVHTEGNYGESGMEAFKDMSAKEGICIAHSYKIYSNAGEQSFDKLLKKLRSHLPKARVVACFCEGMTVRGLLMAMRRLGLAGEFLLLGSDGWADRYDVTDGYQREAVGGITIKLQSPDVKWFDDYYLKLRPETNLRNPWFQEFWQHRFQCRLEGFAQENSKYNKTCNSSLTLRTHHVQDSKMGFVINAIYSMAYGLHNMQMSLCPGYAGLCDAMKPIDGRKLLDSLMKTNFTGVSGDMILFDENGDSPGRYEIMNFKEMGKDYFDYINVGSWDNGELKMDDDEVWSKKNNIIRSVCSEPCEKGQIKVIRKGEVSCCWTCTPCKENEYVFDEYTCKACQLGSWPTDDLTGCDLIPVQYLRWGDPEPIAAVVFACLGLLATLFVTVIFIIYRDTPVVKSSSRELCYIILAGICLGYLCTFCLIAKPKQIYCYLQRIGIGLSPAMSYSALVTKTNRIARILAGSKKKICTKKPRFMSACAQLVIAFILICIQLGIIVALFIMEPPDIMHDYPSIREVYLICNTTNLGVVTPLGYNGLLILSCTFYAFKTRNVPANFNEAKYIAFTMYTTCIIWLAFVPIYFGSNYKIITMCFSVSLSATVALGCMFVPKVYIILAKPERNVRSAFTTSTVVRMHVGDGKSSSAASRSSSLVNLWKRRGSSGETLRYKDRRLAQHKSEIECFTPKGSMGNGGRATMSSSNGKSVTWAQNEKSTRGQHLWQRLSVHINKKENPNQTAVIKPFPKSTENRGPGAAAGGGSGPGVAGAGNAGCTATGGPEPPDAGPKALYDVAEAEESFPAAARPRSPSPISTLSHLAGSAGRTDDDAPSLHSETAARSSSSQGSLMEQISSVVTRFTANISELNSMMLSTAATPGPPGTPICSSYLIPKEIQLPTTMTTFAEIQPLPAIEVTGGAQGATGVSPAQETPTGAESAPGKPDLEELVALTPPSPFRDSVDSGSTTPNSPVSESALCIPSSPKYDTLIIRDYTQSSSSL

IC50, < 30 nM:
Cc1cc(C)c(N)c(C#Cc2cccc(Cl)c2)n1
Cc1ccc(N)c(C#Cc2cncc(Cl)c2)n1
Cc1ccc(N)c(C#Cc2cc(F)cc(F)c2)n1
Cc1ccc(N)c(C#Cc2cccc(F)c2)n1
Cc1cc(C)c(N)c(C#Cc2cccc(F)c2)n1
